This test has as its system CCRF-CEM. Briefly: Cytotoxicity tested in vitro against T-lymphoid leukemic cell line. It counts as functional, cell-based. To be noted: Homo sapiens.
The compound `CC(=O)[C@@]1(O)Cc2c3c(c(O)c(O)c2[C@H](OC2CC(N)C(O)C(C)O2)C1)C(=O)c1ccccc1C3=O` (stereo partly drawn) yielded an IC50 of 1 µM.

On to `CC(=O)[C@]1(O)Cc2c3c(c(O)c(O)c2[C@@H](OC2CC(N)C(O)C(C)O2)C1)C(=O)c1ccccc1C3=O` (stereo partly drawn), for which the IC50 was 1 µM.

`COc1cccc2c1C(=O)c1c(O)c3c(c(O)c1C2=O)C[C@@](O)(C(=O)CO)C[C@@H]3O[C@H]1C[C@H](N)[C@H](O)[C@H](C)O1` [DOXORUBICIN] returned an IC50 of 0.02 µM.

What is called IC50 is the point on the concentration scale where inhibition reaches its midpoint. Read a low IC50 as greater potency.

(Values after ChEMBL document CHEMBL1128027, “Total synthesis of a novel benz[A]anthracycline analog of the antitumor agent 4-demethoxydaunorubicin” (Bioorg Med Chem Lett, 1994).)
